{"source": "patent US10239838B2", "about": "“Heteroaryl orexin receptor antagonists” (Merck Sharp & Dohme Corp., priority 2014, dated 2019)", "key": {"human orexin-2 receptor": {"target": "human orexin-2 receptor (Homo sapiens (Human), UniProt O43614)", "sequence (O43614 whole entry)": "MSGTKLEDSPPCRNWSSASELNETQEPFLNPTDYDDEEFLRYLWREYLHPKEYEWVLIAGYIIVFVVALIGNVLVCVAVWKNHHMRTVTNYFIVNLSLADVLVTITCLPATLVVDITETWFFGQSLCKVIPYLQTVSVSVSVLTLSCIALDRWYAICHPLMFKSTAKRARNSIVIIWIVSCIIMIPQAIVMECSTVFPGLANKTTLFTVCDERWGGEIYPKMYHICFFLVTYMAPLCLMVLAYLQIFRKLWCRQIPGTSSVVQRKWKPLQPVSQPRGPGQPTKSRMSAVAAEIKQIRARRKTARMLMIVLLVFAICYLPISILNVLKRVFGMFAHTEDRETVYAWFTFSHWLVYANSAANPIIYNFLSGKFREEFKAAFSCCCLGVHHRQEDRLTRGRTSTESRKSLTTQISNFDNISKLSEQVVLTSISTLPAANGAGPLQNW", "experiment": "FLIPR Ca2+ Flux Assay, orexin-2 receptor", "type": "cell-based", "conditions": "CHO cells expressing the human orexin-2 receptor; agonist 70 pM Ala-6,12 orexin-A; read-out: hOX2R FLIPR IC50", "procedure": "In a typical experiment the OX1 and OX2 receptor antagonistic activity of the compounds of the present invention was determined in accordance with the following experimental method. For intracellular calcium measurements, Chinese hamster ovary (CHO) cells expressing the rat orexin-1 receptor or the human orexin-2 receptor, are grown in Iscove's modified DMEM containing 2 mM L-glutamine, […], 1% hypoxanthine-thymidine supplement, 100 U/ml penicillin, 100 μg/ml streptomycin and 10% heat-inactivated fetal calf serum (FCS). The cells are seeded at 20,000 cells/well into Becton-Dickinson black 384-well clear bottom sterile plates coated with poly-D-lysine. All reagents were from GIBCO-Invitrogen Corp. The seeded plates are incubated overnight at 37° C. and 5% CO2. Ala-6,12 human orexin-A as the agonist is prepared as a 1 mM stock solution in 1% bovine serum albumin (BSA) and diluted in assay buffer (HBSS containing 20 mM HEPES, 0.1% BSA and 2.5 mM probenecid, pH7.4) for use in the assay at a final concentration of 70 pM. Test compounds are prepared as 10 mM stock solution in DMSO, then diluted in 384-well plates, first in DMSO, then assay buffer. On the day of the assay, cells are washed 3 times with 100 μl assay buffer and then incubated for 60 min (37° C., 5% CO2) in 60 μl assay buffer containing 1 μM Fluo-4 AM ester, 0.02% pluronic acid, and 1% BSA. The dye loading solution is then aspirated and cells are washed 3 times with 100 μl assay buffer. 30 μl of that same buffer is left in each well. Within the Fluorescent Imaging Plate Reader (FLIPR, Molecular Devices), test compounds are added to the plate in a volume of 25 μl, incubated for 5 min and finally 25 μl of agonist is added. Fluorescence is measured for each well at 1 second intervals for 5 minutes and the height of each fluorescence peak is compared to the height of the fluorescence peak induced by 70 pM Ala-6,12 orexin-A with buffer in place of antagonist. […] Alternatively, compound potency can be assessed by a radioligand binding assay (described in Bergman et. al. Bioorg. Med. Chem. Lett. 2008, 18, 1425-1430) in which the inhibition constant (Ki) is determined in membranes prepared from CHO cells expressing either the OX1 or OX2 receptor. The intrinsic orexin receptor antagonist activity of a compound which may be used in the present invention may be determined by these assays."}, "hOX1R": {"target": "hOX1R (Homo sapiens, UniProt O43613)", "experiment": "FLIPR Ca2+ Flux Assay, orexin-1 receptor", "type": "cell-based", "conditions": "CHO cells expressing orexin-1 receptor; agonist 70 pM Ala-6,12 orexin-A"}}}
{"molecule": "CCN(CCc1ccnc(C(C)(C)O)n1)C(=O)c1ccccc1-n1nccn1", "note": "[Example 40, N-Ethyl-N-(2-(2-(2-hydroxypropan-2-yl)pyrimidin-4-yl)ethyl)-2-(2H-1,2,3-triazol-2-yl)benzamide]", "values": [{"measurement": "IC50", "setting": "human orexin-2 receptor", "value": 74, "unit": "nM"}, {"measurement": "IC50", "setting": "hOX1R", "value": "> 10", "unit": "µM"}]}
{"molecule": "CCN(CCc1ncc(C(C)(C)O)cn1)C(=O)c1ccccc1-n1nccn1", "note": "[Example 41, N-Ethyl-N-(2-(5-(2-hydroxypropan-2-yl)pyrimidin-2-yl)ethyl)-2-(2H-1,2,3-triazol-2-yl)benzamide]", "values": [{"measurement": "IC50", "setting": "human orexin-2 receptor", "value": 86, "unit": "nM"}, {"measurement": "IC50", "setting": "hOX1R", "value": 3.23, "unit": "µM"}]}
{"molecule": "CCN(CCc1nccc(C(C)O)n1)C(=O)c1ccccc1-n1nccn1", "note": "(centres unmarked) [Example 43, N-Ethyl-N-(2-(4-(1-hydroxyethyl)pyrimidin-2-yl)ethyl)-2-(2H-1,2,3-triazol-2-yl)benzamide]", "values": [{"measurement": "IC50", "setting": "human orexin-2 receptor", "value": 165, "unit": "nM"}, {"measurement": "IC50", "setting": "hOX1R", "value": "> 10", "unit": "µM"}]}
{"molecule": "CCN(CCc1nccc(C(C)(C)O)n1)C(=O)c1ccccc1-n1nccn1", "note": "[Example 44, N-Ethyl-N-(2-(4-(2-hydroxypropan-2-yl)pyrimidin-2-yl)ethyl)-2-(2H-1,2,3-triazol-2-yl)benzamide]", "values": [{"measurement": "IC50", "setting": "human orexin-2 receptor", "value": 58, "unit": "nM"}, {"measurement": "IC50", "setting": "hOX1R", "value": "> 10", "unit": "µM"}]}
{"molecule": "CCN(CCc1cnc(C(C)(C)O)cn1)C(=O)c1ccccc1-n1nccn1", "note": "[Example 46, N-Ethyl-N-(2-(5-(2-hydroxypropan-2-yl)pyrazin-2-yl)ethyl)-2-(2H-H-1,2,3-triazol-2-yl)benzamide]", "values": [{"measurement": "IC50", "setting": "human orexin-2 receptor", "value": 170, "unit": "nM"}, {"measurement": "IC50", "setting": "hOX1R", "value": "> 10", "unit": "µM"}]}
{"molecule": "CCN(CCc1cc(C)c(C(C)(C)O)cn1)C(=O)c1ccccc1-n1nccn1", "note": "[Example 47, N-Ethyl-N-(2-(5-(2-hydroxypropan-2-yl)-4-methylpyridin-2-yl)ethyl)-2-(2H-1,2,3-triazol-2-yl)benzamide]", "values": [{"measurement": "IC50", "setting": "human orexin-2 receptor", "value": 16, "unit": "nM"}, {"measurement": "IC50", "setting": "hOX1R", "value": 1.56, "unit": "µM"}]}
{"molecule": "CCN(CCc1ccc(C)c(C(C)(C)O)n1)C(=O)c1ccccc1-n1nccn1", "note": "[Example 48, N-Ethyl-N-(2-(6-(2-hydroxypropan-2-yl)-5-methylpyridin-2-yl)ethyl)-2-(2H-1,2,3-triazol-2-yl)benzamide]", "values": [{"measurement": "IC50", "setting": "human orexin-2 receptor", "value": 6, "unit": "nM"}, {"measurement": "IC50", "setting": "hOX1R", "value": 0.791, "unit": "µM"}]}
{"molecule": "CCN(CCc1ccc(C(C)(C)O)cn1)C(=O)c1cccnc1-n1cccn1", "note": "[Example 49, N-Ethyl-N-{2-[5-(1-hydroxy-1-methylethyl)pyridin-2-yl]ethyl}-2-(1H-pyrazol-1-yl)pyridine-3-carboxamide]", "values": [{"measurement": "IC50", "setting": "human orexin-2 receptor", "value": 252, "unit": "nM"}, {"measurement": "IC50", "setting": "hOX1R", "value": "> 10", "unit": "µM"}]}
{"molecule": "CCN(CCc1ccc(C(C)(C)O)cn1)C(=O)c1ccccc1OC(F)(F)F", "note": "[Example 50, N-ethyl-N-{2-[5-(1-hydroxy-1-methylethyl)pyridin-2-yl]ethyl}-2-(trifluoromethoxy)benzamide]", "values": [{"measurement": "IC50", "setting": "human orexin-2 receptor", "value": 239, "unit": "nM"}, {"measurement": "IC50", "setting": "hOX1R", "value": "> 10", "unit": "µM"}]}
{"molecule": "CCN(CCc1ccc(C(C)(C)O)cn1)C(=O)c1ccccc1N1CCCC1", "note": "[Example 51, N-ethyl-N-{2-[5-(1-hydroxy-1-methylethyl)pyridin-2-yl]ethyl}-2-pyrrolidin-1-ylbenzamide]", "values": [{"measurement": "IC50", "setting": "human orexin-2 receptor", "value": 76, "unit": "nM"}, {"measurement": "IC50", "setting": "hOX1R", "value": "> 10", "unit": "µM"}]}
{"molecule": "CCN(CCc1ccc(C(C)(C)O)cn1)C(=O)c1ccccc1-n1cccn1", "note": "[Example 53, N-ethyl-N-{2-[5-(1-hydroxy-1-methylethyl)pyridin-2-yl]ethyl}-2-(1H-pyrazol-1-yl)benzamide]", "values": [{"measurement": "IC50", "setting": "human orexin-2 receptor", "value": 183, "unit": "nM"}, {"measurement": "IC50", "setting": "hOX1R", "value": "> 10", "unit": "µM"}]}
{"molecule": "CCN(CCc1ccc(C(C)(C)O)cn1)C(=O)c1ccccc1CC(F)(F)F", "note": "[Example 54, N-ethyl-N-{2-[5-(1-hydroxy-1-methylethyl)pyridin-2-yl]ethyl}-2-(2,2,2-trifluoroethyl)benzamide]", "values": [{"measurement": "IC50", "setting": "human orexin-2 receptor", "value": 440, "unit": "nM"}, {"measurement": "IC50", "setting": "hOX1R", "value": "> 10", "unit": "µM"}]}
{"molecule": "CCN(CCc1ccc(C(C)(C)O)cn1)C(=O)c1ccccc1-n1ncnn1", "note": "[Example 55, N-ethyl-N-{2-[5-(1-hydroxy-1-methylethyl)pyridin-2-yl]ethyl}-2-(2H-tetrazol-2-yl)benzamide]", "values": [{"measurement": "IC50", "setting": "human orexin-2 receptor", "value": 388, "unit": "nM"}, {"measurement": "IC50", "setting": "hOX1R", "value": "> 10", "unit": "µM"}]}
{"molecule": "CCN(CCc1ccc(C(C)(C)O)cn1)C(=O)c1cccnc1OCC(F)(F)F", "note": "[Example 56, N-ethyl-N-{2-[5-(1-hydroxy-1-methylethyl)pyridin-2-yl]ethyl}-2-(2,2,2-trifluoroethoxy)pyridine-3-carboxamide]", "values": [{"measurement": "IC50", "setting": "human orexin-2 receptor", "value": 430, "unit": "nM"}, {"measurement": "IC50", "setting": "hOX1R", "value": "> 10", "unit": "µM"}]}
{"molecule": "CCOc1ccccc1C(=O)N(CC)CCc1ccc(C(C)(C)O)cn1", "note": "[Example 57, 2-ethoxy-N-ethyl-N-{2-[5-(1-hydroxy-1-methylethyl)pyridin-2-yl]ethyl}benzamide]", "values": [{"measurement": "IC50", "setting": "human orexin-2 receptor", "value": 547, "unit": "nM"}, {"measurement": "IC50", "setting": "hOX1R", "value": "> 10", "unit": "µM"}]}
{"molecule": "CCN(CCc1ccc(C(C)(C)O)cn1)C(=O)c1cccnc1-c1ccccc1", "note": "[Example 58, N-ethyl-N-{2-[5-(1-hydroxy-1-methylethyl)pyridin-2-yl]ethyl}-2-phenylpyridine-3-carboxamide]", "values": [{"measurement": "IC50", "setting": "human orexin-2 receptor", "value": 334, "unit": "nM"}, {"measurement": "IC50", "setting": "hOX1R", "value": "> 10", "unit": "µM"}]}
{"molecule": "CCN(CCc1ccc(C(C)(C)O)cn1)C(=O)c1ccc(OC)nc1C1CC1", "note": "[Example 59, 2-cyclopropyl-N-ethyl-N-{2-[5-(1-hydroxy-1-methylethyl)pyridin-2-yl]ethyl}-6-methoxypyridine-3-carboxamide]", "values": [{"measurement": "IC50", "setting": "human orexin-2 receptor", "value": 55, "unit": "nM"}, {"measurement": "IC50", "setting": "hOX1R", "value": "> 10", "unit": "µM"}]}
{"molecule": "CCN(CCc1ccc(C(C)(C)O)cn1)C(=O)c1ccccc1C1CC1", "note": "[Example 60, 2-cyclopropyl-N-ethyl-N-{2-[5-(1-hydroxy-1-methylethyl)pyridin-2-yl]ethyl}benzamide]", "values": [{"measurement": "IC50", "setting": "human orexin-2 receptor", "value": 244, "unit": "nM"}, {"measurement": "IC50", "setting": "hOX1R", "value": "> 10", "unit": "µM"}]}
{"molecule": "CCN(CCc1ccc(C(C)(C)O)cn1)C(=O)c1ccc(F)cc1-n1nccn1", "note": "[Example 61, N-ethyl-4-fluoro-N-{2-[5-(1-hydroxy-1-methylethyl)pyridin-2-yl]ethyl}-2-(2H-1,2,3-triazol-2-yl)benzamide]", "values": [{"measurement": "IC50", "setting": "human orexin-2 receptor", "value": 26, "unit": "nM"}, {"measurement": "IC50", "setting": "hOX1R", "value": "> 10", "unit": "µM"}]}
{"molecule": "CCN(CCc1ccc(C(C)(C)O)cn1)C(=O)c1ccccc1C1CCC1", "note": "[Example 62, 2-cyclobutyl-N-ethyl-N-{2-[5-(1-hydroxy-1-methylethyl)pyridin-2-yl]ethyl}benzamide]", "values": [{"measurement": "IC50", "setting": "human orexin-2 receptor", "value": 62, "unit": "nM"}, {"measurement": "IC50", "setting": "hOX1R", "value": "> 10", "unit": "µM"}]}
{"molecule": "CCN(CCc1ccc(C(C)(C)O)cn1)C(=O)c1ccccc1C1CC1(F)F", "note": "(centres unmarked) [Example 63, 2-(2,2-difluorocyclopropyl)-N-ethyl-N-{2-[5-(1-hydroxy-1-methylethyl)pyridin-2-yl]ethyl}benzamide]", "values": [{"measurement": "IC50", "setting": "human orexin-2 receptor", "value": 38, "unit": "nM"}, {"measurement": "IC50", "setting": "hOX1R", "value": "> 10", "unit": "µM"}]}
{"molecule": "CCN(CCc1ccc(C(C)(C)O)cn1)C(=O)c1cccnc1OCC(F)F", "note": "[Example 64, 2-(2,2-difluoroethoxy)-N-ethyl-N-{2-[5-(1-hydroxy-1-methylethyl)pyridin-2-yl]ethyl}pyridine-3-carboxamide]", "values": [{"measurement": "IC50", "setting": "human orexin-2 receptor", "value": 337, "unit": "nM"}, {"measurement": "IC50", "setting": "hOX1R", "value": "> 10", "unit": "µM"}]}
